# Measurements as given in patent US6761896B1, “Skin cosmetic care system and method” (Unilever Home & Personal Care USA, division of Conopco, Inc., priority 1998, dated 2004).
# Tested on: normal human keratinocytes
# Assay: Keratinocyte proliferation measured by DNA content (monolayer cultures)
# Format: cell-based
# Protocol: The cells used in these studies are normal human keratinocytes and pig skin organ cultures. The normal human keratinocytes isolated from neonatal foreskins by trypsin treatment were growth in DME medium/5% fetal calf serum in the presence of mitomycin C treated 3T3 mouse fibroblasts of establishing dividing colonies. Keratinocytes were grown under these conditions until their third passage. For the experiments, third passage keratinocytes were plated into a serum-free keratincoyte growth medium (KGM; obtained form Clonetics, San Diego, Calif.) containing 0.15 mM calcium. Neonatal human fibroblasts were obtained from Clonetics and grown in Dulbecco's Minimum essential medium (DMEM) containing 10% fetal calf serum. Experiments were conducted in cells between passage numbers 4-10. Keratinocytes were plated in the middle 60 wells of 96 well plates (3000 cells/well). 24 hrs later, the plates were placed on top, in the middle of the magnet (bar or Bioflex) and grown for a further 4 days until the cells become 70-80% confluent. Medium was changed every 2 or 3 days. Control plates were placed on top of a nonmagnetic metal plate and the test plates were placed on top of the bar magnet (North or South side up) or in the middle of the Bioflex magnet. In some studies where the growth of cells were measured as a function of magnetic force, plates were placed on top of one another on top of the magnet such that the bottom plate is closest to the magnet (highest force) and the top plate is the furthest away from the magnet (lowest magnetic force). Studies to assess the effects of North and South magnets were carried out in different incubators to avoid the influence of one magnet on the other. After 4 days of growth, the plates were removed from the incubator, washed 2 times with phosphate buffered saline (PBS), and incubated with 100 ul of a bisbenzimide H 33258 solution (obtained from Calbiochem—stock solution was prepared at 1 mg/ml distilled water,'stored in dark at 4° C. for no longer than 1 week). After 15 min of incubation in the dark at room temperature, fluorescence was measured on a Millipore Cytofluor 2000b (ex/em=360/460 nm). The DNA content was calculated using a standard of calf thymus DNA and expressed as ug/well or as % of control wells which were not exposed to magnets. In all the studies using monolayer cultures mean+/−standard deviation of at least 24 different wells were used to calculate statistical significance using Students t-test. Example 3 evaluated the synergy between lactic acid and magnetic field in inducing the proliferation of keratinocytes. In this study, using in vitro keratinocyte cultures, 2 mM lactic acid increased proliferation by 5.4%. This increase was not statistically significant. […]
structure (smiles),measurement,setting,value
"CC(O)C(=O)O (stereo not shown) [LA, lactic acid]","DNA content, Average",2 mM lactic acid + BIOflex magnet,277
same,stimulation of keratinocyte proliferation,"2 mM lactic acid in the presence of BIOflex magnet, statistically significant",15%
same,"DNA content, Average","2 mM lactic acid, no magnet",254
same,increase in keratinocyte proliferation,"2 mM lactic acid, no magnet, not statistically significant",5.4%
